How the values were obtained:
herpes simplex virus = type: cell-based

Compound	% Effectiveness (vaccinia virus)	Effective (vaccinia virus)	Effective [uM] (vaccinia virus)	inhibition of vaccinia virus infection (in words) (vaccinia virus)	state of the cells (vaccinia virus)	spread of virus over time (vaccinia virus)	reversal of the antiviral effect of anisomycin (herpes simplex virus)
C[C@]12CC[C@@H]3c4ccc(O)cc4CC[C@H]3[C@@H]1CC[C@@H]2O [17-B Estradiol, 17-B-Estradiol]	50%	✓	100 µM	inhibited infection with vaccinia virus	–	–	–
COc1ccc(C[C@@H]2NC[C@@H](O)[C@@H]2OC(C)=O)cc1 [ANISOMYCIN, [(2S,3R,4R)-4-hydroxy-2-[(4-methoxyphenyl)methyl]pyrrolidin-3-yl]acetate]	–	–	–	–	the cells were healthy	–	–
CC(C)(c1ccc(OCC2CO2)cc1)c1ccc(OCC2CO2)cc1 (stereo not drawn) [BADGE]	75%	✓	50 to 100 µM	inhibited infection with vaccinia virus	–	–	–
C[C@]12CC[C@H](O)CC1=CC[C@@H]1[C@@H]2CC[C@]2(C)C(=O)CC[C@@H]12 [DHEA]	99%	✓	30 µM	inhibited infection with vaccinia virus	–	the virus usually starts to spread after day 2	–
N#CC(=C(/N)Sc1ccccc1N)/C(C#N)=C(\N)Sc1ccccc1N [U0126]	–	–	–	–	–	–	this effect was reversed
